Measured values from patent US9441023B2, “Peptide YY analogs” (GlaxoSmithKline Intellectual Property Development Limited, priority 2013, dated 2016).
Where no end group is shown, it is not given here.

Assay: cumulative food intake, lean mice (Model A), BioDaQ system
Assay type: in vivo
Settings: Table 1; lean male C57BL/6 mice, 1 mg/kg s.c., cumulative food intake after 6 h, relative to vehicle; negative = reduction
Experimental: Cumulative food intake after 6 h was determined for the PYY analogs in either lean (Model A) or diet-induced obese (DIO) (Model B) C57BL/6 mice in a BioDaQ system for continuous monitoring of food intake (Research Diets Inc., New Brunswick, N.J.). […] Mice were placed singly into the BioDaQ cages and acclimatized for a minimum of 6 days and were allowed ad libitum access to food and water. Approximately 1 hour prior to lights-out, animals were dosed subcutaneously with either vehicle (20 mM Acetate buffer, pH 4.9 or 20% DMSO in water) or analogs dissolved in vehicle (1 mg/kg) (8 animals per group). Once all animals have been dosed, feeder gates were opened providing ad-libitum access to food. Continuous food intake was monitored and collected for 15 hours. […] P-values <0.05 were considered to indicate a significant difference between treatment groups.

Compared with CC(C)C[C@H](NC(=O)[C@H](CO)NC(=O)[C@H](C)NC(=O)[C@H](Cc1ccc(O)cc1)NC(=O)[C@H](Cc1ccc(O)cc1)NC(=O)[C@H](CCCNC(=N)N)NC(=O)[C@H](CC(N)=O)NC(=O)[C@H](CC(C)C)NC(=O)[C@H](CCC(=O)O)NC(=O)[C@H](CCC(=O)O)NC(=O)[C@@H]1CCCN1C(=O)[C@H](CO)NC(=O)[C@H](C)NC(=O)[C@H](CC(=O)O)NC(=O)[C@H](CCCCN)NC(=O)CNC(=O)[C@@H]1CCCN1C(=O)[C@H](C)NC(=O)[C@H](CCC(=O)O)NC(=O)[C@@H]1CCCN1C(=O)[C@H](CCCCN)NC(=O)[C@@H]1CCCN1)C(=O)N[C@@H](CCCNC(=N)N)C(=O)N[C@@H](CCCCN)C(=O)N[C@@H](Cc1ccc(O)cc1)C(=O)N[C@@H](CC(C)C)C(=O)N[C@@H](CC(N)=O)C(=O)N[C@@H](Cc1c[nH]c2ccccc12)C(=O)N[C@@H](CC(C)C)C(=O)N[C@H](C(=O)N[C@@H](CCCNC(=N)N)C(=O)N[C@@H](CCC(N)=O)C(=O)N[C@@H](CCCNC(=N)N)C(=O)N[C@@H](Cc1ccc(O)cc1)C(N)=O)[C@@H](C)O [Example 2], CC(C)C[C@H](NC(=O)[C@H](CO)NC(=O)[C@H](C)NC(=O)[C@H](Cc1ccc(O)cc1)NC(=O)[C@H](Cc1ccc(O)cc1)NC(=O)[C@H](CCCNC(=N)N)NC(=O)[C@H](CC(N)=O)NC(=O)[C@H](CC(C)C)NC(=O)[C@H](CCC(=O)O)NC(=O)[C@H](CCC(=O)O)NC(=O)[C@@H]1CCCN1C(=O)[C@H](CO)NC(=O)[C@H](C)NC(=O)[C@H](CC(=O)O)NC(=O)[C@H](CCCCN)NC(=O)CNC(=O)[C@@H]1CCCN1C(=O)[C@H](C)NC(=O)[C@H](CCC(=O)O)NC(=O)[C@@H]1CCCN1C(=O)[C@H](CCCCN)NC(=O)[C@@H]1CCCN1)C(=O)N[C@@H](CCCNC(=N)N)C(=O)N[C@@H](CCCCN)C(=O)N[C@@H](Cc1ccc(O)cc1)C(=O)N[C@@H](CC(C)C)C(=O)N[C@@H](CC(N)=O)C(=O)N[C@@H](Cc1c[nH]c2ccccc12)C(=O)N[C@H](C(=O)N[C@H](C(=O)N[C@@H](CCCNC(=N)N)C(=O)N[C@@H](CCC(N)=O)C(=O)N[C@@H](CCCNC(=N)N)C(=O)N[C@@H](Cc1ccc(O)cc1)C(N)=O)[C@@H](C)O)C(C)C [Example 31] is lower in “% reduction in food intake, model A” value: −50% for the first, −59% for the second.

CC(C)C[C@H](NC(=O)[C@H](CO)NC(=O)[C@H](C)NC(=O)[C@H](Cc1ccc(O)cc1)NC(=O)[C@H](Cc1ccc(O)cc1)NC(=O)[C@H](CCCNC(=N)N)NC(=O)[C@H](CC(N)=O)NC(=O)[C@H](Cc1c[nH]c2ccccc12)NC(=O)[C@H](CCC(=O)O)NC(=O)[C@H](CCC(=O)O)NC(=O)[C@@H]1CCCN1C(=O)[C@H](CO)NC(=O)[C@H](C)NC(=O)[C@H](CC(=O)O)NC(=O)[C@H](CCCCN)NC(=O)CNC(=O)[C@@H]1CCCN1C(=O)[C@H](C)NC(=O)[C@H](CCC(=O)O)NC(=O)[C@@H]1CCCN1C(=O)[C@H](CCCCN)NC(=O)[C@@H]1CCCN1)C(=O)N[C@@H](CCCNC(=N)N)C(=O)N[C@@H](CCCCN)C(=O)N[C@@H](Cc1ccc(O)cc1)C(=O)N[C@@H](CC(C)C)C(=O)N[C@@H](CC(N)=O)C(=O)N[C@@H](Cc1c[nH]c2ccccc12)C(=O)N[C@@H](CC(C)C)C(=O)N[C@H](C(=O)N[C@@H](CCCNC(=N)N)C(=O)N[C@@H](CCC(N)=O)C(=O)N[C@@H](CCCNC(=N)N)C(=O)N[C@@H](Cc1ccc(O)cc1)C(N)=O)[C@@H](C)O [Example 6] and CC(C)C[C@H](NC(=O)[C@H](CO)NC(=O)[C@H](C)NC(=O)[C@H](Cc1ccc(O)cc1)NC(=O)[C@H](Cc1ccc(O)cc1)NC(=O)[C@H](CCCNC(=N)N)NC(=O)[C@H](CC(N)=O)NC(=O)[C@H](Cc1c[nH]c2ccccc12)NC(=O)[C@H](CCC(=O)O)NC(=O)[C@H](CCC(=O)O)NC(=O)[C@@H]1CCCN1C(=O)[C@H](CO)NC(=O)[C@H](C)NC(=O)[C@H](CC(=O)O)NC(=O)[C@H](CCCCN)NC(=O)CNC(=O)[C@@H]1CCCN1C(=O)[C@H](C)NC(=O)[C@H](CCC(=O)O)NC(=O)[C@@H]1CCCN1C(=O)[C@H](CCCCN)NC(=O)[C@@H]1CCCN1)C(=O)N[C@@H](CCCNC(=N)N)C(=O)N[C@@H](CCCCN)C(=O)N[C@@H](Cc1ccc(O)cc1)C(=O)N[C@@H](CC(C)C)C(=O)N[C@@H](CC(N)=O)C(=O)N[C@@H](Cc1c[nH]c2ccccc12)C(=O)N[C@H](C(=O)N[C@H](C(=O)N[C@@H](CCCNC(=N)N)C(=O)N[C@@H](CCC(N)=O)C(=O)N[C@@H](CCCNC(=N)N)C(=O)N[C@@H](Cc1ccc(O)cc1)C(N)=O)[C@@H](C)O)C(C)C [Example 10] are the same in “% reduction in food intake, model A” value: −88% for the first, −88% for the second.

In the case of CC(C)C[C@H](NC(=O)[C@H](CC(=O)O)NC(=O)[C@H](C)NC(=O)[C@H](Cc1ccc(O)cc1)NC(=O)[C@H](Cc1ccc(O)cc1)NC(=O)[C@H](CCCNC(=N)N)NC(=O)[C@H](CC(N)=O)NC(=O)[C@H](Cc1c[nH]c2ccccc12)NC(=O)[C@H](CCC(=O)O)NC(=O)[C@H](CCC(=O)O)NC(=O)[C@@H]1CCCN1C(=O)[C@H](CO)NC(=O)[C@H](C)NC(=O)[C@H](CC(=O)O)NC(=O)[C@H](CCCCN)NC(=O)CNC(=O)[C@@H]1CCCN1C(=O)[C@H](C)NC(=O)[C@H](CCC(=O)O)NC(=O)[C@@H]1CCCN1C(=O)[C@H](CCCCN)NC(=O)[C@@H]1CCCN1)C(=O)N[C@@H](CCCNC(=N)N)C(=O)N[C@@H](CCCCN)C(=O)N[C@@H](Cc1ccc(O)cc1)C(=O)N[C@@H](CC(C)C)C(=O)N[C@@H](CC(N)=O)C(=O)N[C@@H](Cc1c[nH]c2ccccc12)C(=O)N[C@H](C(=O)N[C@H](C(=O)N[C@@H](CCCNC(=N)N)C(=O)N[C@@H](CCC(N)=O)C(=O)N[C@@H](CCCNC(=N)N)C(=O)N[C@@H](Cc1ccc(O)cc1)C(N)=O)[C@@H](C)O)C(C)C [Example 8], the “% reduction in food intake, model A” value is reported as −74%.

Same assay, conditions: Table 2; lean male C57BL/6 mice, 1 mg/kg s.c., 6 h time point, relative to vehicle; negative = reduction

Going from CC[C@H](C)[C@H](N)C(=O)N[C@@H](CCCCN)C(=O)N1CCC[C@H]1C(=O)N1CCC[C@H]1C(=O)N[C@@H](Cc1ccc(O)cc1)C(=O)N1CCC[C@H]1C(=O)NCC(=O)N[C@@H](CS)C(=O)N[C@@H](CC(=O)O)C(=O)N[C@@H](C)C(=O)N[C@@H](CO)C(=O)N1CCC[C@H]1C(=O)N[C@@H](CCC(=O)O)C(=O)N[C@@H](CCC(=O)O)C(=O)N[C@@H](CCC(N)=O)C(=O)N[C@@H](CC(N)=O)C(=O)N[C@@H](CCCCN)C(=O)N[C@@H](Cc1ccc(O)cc1)C(=O)N[C@@H](Cc1ccc(O)cc1)C(=O)N[C@@H](C)C(=O)N[C@@H](CO)C(=O)N[C@@H](CC(C)C)C(=O)N[C@@H](CCCNC(=N)N)C(=O)N[C@@H](C)C(=O)N[C@@H](Cc1ccc(O)cc1)C(=O)N[C@@H](Cc1c[nH]c2ccccc12)C(=O)N[C@@H](CC(N)=O)C(=O)N[C@@H](CC(C)C)C(=O)N[C@H](C(=O)N[C@H](C(=O)N[C@@H](CCCNC(=N)N)C(=O)N[C@@H](CCC(N)=O)C(=O)N[C@@H](CCCNC(=N)N)C(=O)N[C@@H](Cc1ccc(O)cc1)C(N)=O)[C@@H](C)O)C(C)C [Peptide 8] to “H-IKPEAPLSKQLEEEAVRYYASLRHYLNLVTRQRY-NH2 [Peptide 2]”, the “% reduction in food intake, model A” value rises from −19% to −12%.

Compared with “H-PEPEHPGCDASPEDQNKYHASLRKYLNWVTRQRY-NH2 [Peptide 10]”, “H-PKPEAPGCDASPEEWNRYYASLRKYLNWVTRQHY-NH2 [Peptide 14]” is higher in “% reduction in food intake, model A” value: −21% for the first, 24% for the second.

First: H-PKPEAPGCDASPEEWNRYYASLRKYLNWVTRQNY-NH2 [Peptide 1]
Second: H-PKPEAPGEDASPKEWNRYYASLRKYLNWVTRQRY-NH2 [Peptide 3]
The “% reduction in food intake, model A” value of the first is higher: 5% for the first, −30% for the second.

First: H-PQPESPEGNASPEDWACYHAAVRHYVNLITRQRY-NH2 [Peptide 18]
Second: PKPEAPLSKQLEEEAVRYYASLRHYLNLVTRQRY-NH2 [Peptide 21]
The “% reduction in food intake, model A” value of the first is lower: −17% for the first, −2% for the second.
